Experimental findings from ChEMBL document CHEMBL2069188, “Structural requirements for the antitubercular quaternized triflupromazine pharmacophore” (Bioorg Med Chem Lett, 2012) are described below.

As a reminder, the MIC90 is an inhibitory concentration at the 90% level, which refers to growth in some studies and to a panel of isolates in others. Low values mean higher susceptibility, high ones lower susceptibility.

≈ marks a conversion by molar mass, not a printed value.

The subject of this assay is Mycobacterium tuberculosis. Kind of assay: Antitubercular activity against highly drug-resistant, non replicating, persistent Mycobacterium tuberculosis harboring Vibrio harveyii luciferase gene incubated under anaerobic condition measured after 28 hrs of aerobic recovery by LORA method. In kind it is functional.
`C[N+](C)(CCCN1c2ccccc2Sc2ccc(C(F)(F)F)cc21)Cc1ccc(Br)cc1.[Br-]` came in with an MIC90 of 7.1 µM. Compound `CO[C@H]1/C=C/O[C@@]2(C)Oc3c(C)c(O)c4c(O)c(c(/C=N/N5CCN(C)CC5)c(O)c4c3C2=O)NC(=O)/C(C)=C\C=C\[C@H](C)[C@H](O)[C@@H](C)[C@@H](O)[C@@H](C)[C@H](OC(C)=O)[C@@H]1C` [RIFAMPIN] had an MIC90 of 0.61 µM (≈ 0.502 µg/mL). For the compound `C[N+](C)(CCCN1c2ccccc2Sc2ccc(C(F)(F)F)cc21)Cc1ccc(I)cc1.[Br-]`, the MIC90 stood at 7.2 µM. Compound `C[N+](C)(CCCN1c2ccccc2Sc2ccc(C(F)(F)F)cc21)Cc1ccc(F)cc1.[Cl-]` registered an MIC90 of 14.3 µM. `FC(F)(F)c1ccc2c(c1)N(Cc1cn(Cc3ccc(Cl)cc3)nn1)c1ccccc1S2` displayed an MIC90 of over 100 µM. `C[N+](C)(CCCN1c2ccccc2Sc2ccc(C(F)(F)F)cc21)Cc1ccc(Cl)cc1.[Cl-]` yielded an MIC90 of 7.8 µM.
